# Source: patent US10835533B2, “1 -((3S,4R)-4-(3-fluorophenyl)-1-(2-methoxyethyl)pyrrolidin-3-yl)-3-(4-methyl-3-(2-methylpyrimidin-5-yl)-1-phenyl-1H-pyrazol-5-yl)urea as a TrkA kinase inhibitor” (Array BioPharma Inc., priority 2014, dated 2020)
# Experiments:
# Experiment in all cases: KinaseProfiler kinase profiling
# Format in all cases: biochemical
# Conditions in all cases: 10 μM, ATP near Km
# AKT3 = biological target: T1, AKT3 (Homo sapiens, UniProt Q9Y243)
# T1 construct: purchased Millipore, Inc. (KinaseProfiler service)
# Method in brief: (§1)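 The compound was assayed at 10 μM in duplicate, using an ATP level near the Km determined for each individual kinase. Values were reported as percent of control and averaged across the two runs.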
# ARK5 = biological target: T2, ARK5 (Homo sapiens, UniProt O60285)
# T2 construct: purchased Millipore, Inc. (KinaseProfiler service)
# Method in brief: as §1
# Bmx = biological target: T3, Bmx (Homo sapiens, UniProt P51813)
# T3 construct: purchased Millipore, Inc. (KinaseProfiler service)
# Method in brief: as §1
# CAMK4 = biological target: T4, CAMK4 (Homo sapiens, UniProt Q16566)
# T4 construct: purchased Millipore, Inc. (KinaseProfiler service)
# Method in brief: as §1
# CDK2/cyclinA = biological target: T5, CDK2/cyclinA (Homo sapiens, UniProt P24941)
# T5 construct: purchased Millipore, Inc. (KinaseProfiler service)
# Method in brief: as §1
# CDK7/cyclinH/MAT1 = biological target: T6, CDK7/cyclinH/MAT1 (Homo sapiens, UniProt P50613)
# T6 construct: purchased Millipore, Inc. (KinaseProfiler service)
# Method in brief: as §1
# CK1_y = test system: CK1_y
# Method in brief: as §1
# CK1gamma2 = biological target: T7, CK1gamma2 (Homo sapiens, UniProt P78368)
# T7 construct: purchased Millipore, Inc. (KinaseProfiler service)
# Method in brief: as §1
# DAPK1 = biological target: T8, DAPK1 (Homo sapiens, UniProt P53355)
# T8 construct: purchased Millipore, Inc. (KinaseProfiler service)
# Method in brief: as §1
# EGFR = biological target: T9, EGFR (Homo sapiens, UniProt P00533)
# T9 construct: purchased Millipore, Inc. (KinaseProfiler service)
# Method in brief: as §1
# EphB2 = biological target: T10, EphB2 (Homo sapiens, UniProt P29323)
# T10 construct: purchased Millipore, Inc. (KinaseProfiler service)
# Method in brief: as §1
# HIPK3 = biological target: T11, HIPK3 (Homo sapiens, UniProt Q9H422)
# T11 construct: purchased Millipore, Inc. (KinaseProfiler service)
# Method in brief: as §1
# IKKalpha = biological target: T12, IKKalpha (Homo sapiens, UniProt O15111)
# T12 construct: purchased Millipore, Inc. (KinaseProfiler service)
# Method in brief: as §1
# IRAK4 = biological target: T13, IRAK4 (Homo sapiens, UniProt Q9NWZ3)
# T13 construct: purchased Millipore, Inc. (KinaseProfiler service)
# Method in brief: as §1
# JAK3 = biological target: T14, JAK3 (Homo sapiens, UniProt P52333)
# T14 construct: purchased Millipore, Inc. (KinaseProfiler service)
# Method in brief: as §1
# KIT = biological target: T15, KIT (Homo sapiens, UniProt P10721)
# T15 construct: purchased Millipore, Inc. (KinaseProfiler service)
# Method in brief: as §1
# LKB1 = biological target: T16, LKB1 (Homo sapiens, UniProt Q15831)
# T16 construct: purchased Millipore, Inc. (KinaseProfiler service)
# Method in brief: as §1
# LOK = biological target: T17, LOK (Homo sapiens, UniProt O94804)
# T17 construct: purchased Millipore, Inc. (KinaseProfiler service)
# Method in brief: as §1
# MAPKAP-K3 = biological target: T18, MAPKAP-K3 (Homo sapiens, UniProt Q16644)
# T18 construct: purchased Millipore, Inc. (KinaseProfiler service)
# Method in brief: as §1
# MARK2 = biological target: T19, MARK2 (Homo sapiens, UniProt Q7KZI7)
# T19 construct: purchased Millipore, Inc. (KinaseProfiler service)
# Method in brief: as §1
# MINK = biological target: T20, MINK (Homo sapiens, UniProt Q8N4C8)
# T20 construct: purchased Millipore, Inc. (KinaseProfiler service)
# Method in brief: as §1
# MRCKbeta = biological target: T21, MRCKbeta (Homo sapiens, UniProt Q9Y5S2)
# T21 construct: purchased Millipore, Inc. (KinaseProfiler service)
# Method in brief: as §1
# MST3 = biological target: T22, MST3 (Homo sapiens, UniProt Q9Y6E0)
# T22 construct: purchased Millipore, Inc. (KinaseProfiler service)
# Method in brief: as §1
# NEK11 = biological target: T23, NEK11 (Homo sapiens, UniProt Q8NG66)
# T23 construct: purchased Millipore, Inc. (KinaseProfiler service)
# Method in brief: as §1
# PKAC-alpha = biological target: T24, PKAC-alpha (Homo sapiens, UniProt P17612)
# T24 construct: purchased Millipore, Inc. (KinaseProfiler service)
# Method in brief: as §1
# PKCalpha = biological target: T25, PKCalpha (Homo sapiens, UniProt P17252)
# T25 construct: purchased Millipore, Inc. (KinaseProfiler service)
# Method in brief: as §1
# PKCbetaII = biological target: T26, PKCbetaII (Homo sapiens, UniProt P05771)
# T26 construct: purchased Millipore, Inc. (KinaseProfiler service)
# Method in brief: as §1
# PKCeta = biological target: T27, PKCeta (Homo sapiens, UniProt P24723)
# T27 construct: purchased Millipore, Inc. (KinaseProfiler service)
# Method in brief: as §1
# PKCzeta = biological target: T28, PKCzeta (Homo sapiens, UniProt Q05513)
# T28 construct: purchased Millipore, Inc. (KinaseProfiler service)
# Method in brief: as §1
# Pim-1 = biological target: T29, Pim-1 (Homo sapiens, UniProt P11309)
# T29 construct: purchased Millipore, Inc. (KinaseProfiler service)
# Method in brief: as §1
# Plk3 = biological target: T30, Plk3 (Homo sapiens, UniProt Q9H4B4)
# T30 construct: purchased Millipore, Inc. (KinaseProfiler service)
# Method in brief: as §1
# Ron = biological target: T31, Ron (Homo sapiens, UniProt Q04912)
# T31 construct: purchased Millipore, Inc. (KinaseProfiler service)
# Method in brief: as §1
# Rsk1 = biological target: T32, Rsk1 (Homo sapiens, UniProt Q15418)
# T32 construct: purchased Millipore, Inc. (KinaseProfiler service)
# Method in brief: as §1
# SGK3 = biological target: T33, SGK3 (Homo sapiens, UniProt Q96BR1)
# T33 construct: purchased Millipore, Inc. (KinaseProfiler service)
# Method in brief: as §1
# TAO3 = biological target: T34, TAO3 (Homo sapiens, UniProt Q9H2K8)
# T34 construct: purchased Millipore, Inc. (KinaseProfiler service)
# Method in brief: as §1
# TBK1 = biological target: T35, TBK1 (Homo sapiens, UniProt Q9UHD2)
# T35 construct: purchased Millipore, Inc. (KinaseProfiler service)
# Method in brief: as §1
# TEC Activated = biological target: T36, TEC Activated (Homo sapiens, UniProt P42680)
# T36 construct: purchased Millipore, Inc. (KinaseProfiler service)
# Method in brief: as §1
# TLK2 = biological target: T37, TLK2 (Homo sapiens, UniProt Q86UE8)
# T37 construct: purchased Millipore, Inc. (KinaseProfiler service)
# Method in brief: as §1
# TNK2 = biological target: T38, TNK2 (Homo sapiens, UniProt Q07912)
# T38 construct: purchased Millipore, Inc. (KinaseProfiler service)
# Method in brief: as §1
# Tie2 = biological target: T39, Tie2 (Homo sapiens, UniProt Q02763)
# T39 construct: purchased Millipore, Inc. (KinaseProfiler service)
# Method in brief: as §1
# p38delta = biological target: T40, p38delta (Homo sapiens, UniProt O15264)
# T40 construct: purchased Millipore, Inc. (KinaseProfiler service)
# Method in brief: as §1
# T29 sequence (P11309 whole entry): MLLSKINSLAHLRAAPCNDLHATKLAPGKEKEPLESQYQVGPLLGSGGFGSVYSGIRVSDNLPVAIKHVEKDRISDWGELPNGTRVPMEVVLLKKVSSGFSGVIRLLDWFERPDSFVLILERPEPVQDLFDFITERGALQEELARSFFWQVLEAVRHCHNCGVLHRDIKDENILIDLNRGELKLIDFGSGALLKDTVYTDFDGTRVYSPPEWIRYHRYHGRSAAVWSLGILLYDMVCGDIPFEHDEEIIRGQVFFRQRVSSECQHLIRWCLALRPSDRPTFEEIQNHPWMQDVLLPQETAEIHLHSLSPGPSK
# T8 sequence (P53355 whole entry): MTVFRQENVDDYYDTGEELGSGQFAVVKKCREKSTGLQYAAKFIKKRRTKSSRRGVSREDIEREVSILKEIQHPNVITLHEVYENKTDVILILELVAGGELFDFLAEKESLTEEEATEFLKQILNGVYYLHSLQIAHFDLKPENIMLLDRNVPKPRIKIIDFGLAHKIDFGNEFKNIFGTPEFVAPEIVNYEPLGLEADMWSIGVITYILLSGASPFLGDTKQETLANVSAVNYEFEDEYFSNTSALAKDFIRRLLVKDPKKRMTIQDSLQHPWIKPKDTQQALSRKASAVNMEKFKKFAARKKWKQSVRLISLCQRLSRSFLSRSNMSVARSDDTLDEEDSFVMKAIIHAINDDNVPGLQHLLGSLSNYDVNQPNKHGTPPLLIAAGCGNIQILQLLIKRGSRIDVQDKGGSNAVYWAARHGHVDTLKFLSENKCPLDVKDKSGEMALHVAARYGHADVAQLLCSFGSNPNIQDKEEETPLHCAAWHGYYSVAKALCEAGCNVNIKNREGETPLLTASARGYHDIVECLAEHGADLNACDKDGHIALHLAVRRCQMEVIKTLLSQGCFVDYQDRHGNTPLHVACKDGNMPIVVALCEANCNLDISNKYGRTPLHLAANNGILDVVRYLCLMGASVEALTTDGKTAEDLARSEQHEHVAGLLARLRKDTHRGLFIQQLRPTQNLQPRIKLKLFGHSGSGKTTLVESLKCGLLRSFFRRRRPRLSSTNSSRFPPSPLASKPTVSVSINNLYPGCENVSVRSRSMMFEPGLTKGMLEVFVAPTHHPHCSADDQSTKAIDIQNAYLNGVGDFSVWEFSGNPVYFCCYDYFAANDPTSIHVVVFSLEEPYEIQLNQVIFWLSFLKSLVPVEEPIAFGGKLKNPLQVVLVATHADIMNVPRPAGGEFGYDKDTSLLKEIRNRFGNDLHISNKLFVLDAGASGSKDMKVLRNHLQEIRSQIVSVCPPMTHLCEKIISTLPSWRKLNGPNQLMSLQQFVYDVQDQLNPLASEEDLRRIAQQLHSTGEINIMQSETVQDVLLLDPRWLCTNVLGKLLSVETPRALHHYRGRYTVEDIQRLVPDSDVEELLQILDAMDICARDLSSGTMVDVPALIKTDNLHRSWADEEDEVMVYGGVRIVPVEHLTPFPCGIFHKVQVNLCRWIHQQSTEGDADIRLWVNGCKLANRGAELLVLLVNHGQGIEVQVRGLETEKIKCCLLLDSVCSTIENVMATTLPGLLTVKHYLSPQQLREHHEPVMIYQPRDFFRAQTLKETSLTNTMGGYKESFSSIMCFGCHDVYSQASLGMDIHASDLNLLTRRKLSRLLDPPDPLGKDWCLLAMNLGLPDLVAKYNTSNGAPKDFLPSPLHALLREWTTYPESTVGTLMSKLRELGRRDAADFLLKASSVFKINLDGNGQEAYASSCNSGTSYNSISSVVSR
# T4 sequence (Q16566 whole entry): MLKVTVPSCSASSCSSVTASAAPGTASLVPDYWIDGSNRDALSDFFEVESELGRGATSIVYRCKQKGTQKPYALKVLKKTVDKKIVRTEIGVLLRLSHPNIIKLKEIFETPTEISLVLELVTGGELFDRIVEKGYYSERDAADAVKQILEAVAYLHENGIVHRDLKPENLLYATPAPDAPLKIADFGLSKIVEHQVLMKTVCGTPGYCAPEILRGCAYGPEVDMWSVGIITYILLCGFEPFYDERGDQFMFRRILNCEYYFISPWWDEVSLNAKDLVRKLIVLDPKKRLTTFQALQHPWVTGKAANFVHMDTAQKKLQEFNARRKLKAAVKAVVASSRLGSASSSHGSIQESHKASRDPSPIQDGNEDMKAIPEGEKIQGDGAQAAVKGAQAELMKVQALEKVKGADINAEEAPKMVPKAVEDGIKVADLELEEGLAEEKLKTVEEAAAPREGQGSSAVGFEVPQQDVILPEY
# T18 sequence (Q16644 whole entry): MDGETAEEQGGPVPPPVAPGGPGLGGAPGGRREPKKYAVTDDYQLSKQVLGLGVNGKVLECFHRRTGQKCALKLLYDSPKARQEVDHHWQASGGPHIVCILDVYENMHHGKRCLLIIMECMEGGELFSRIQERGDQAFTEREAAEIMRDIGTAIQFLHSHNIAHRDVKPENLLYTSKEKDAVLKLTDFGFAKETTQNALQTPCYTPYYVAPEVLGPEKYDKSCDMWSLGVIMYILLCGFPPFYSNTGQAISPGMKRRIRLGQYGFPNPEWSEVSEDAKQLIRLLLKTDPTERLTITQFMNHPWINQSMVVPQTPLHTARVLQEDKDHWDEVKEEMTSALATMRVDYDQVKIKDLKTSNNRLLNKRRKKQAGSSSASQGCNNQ
# T15 sequence (P10721 26-976): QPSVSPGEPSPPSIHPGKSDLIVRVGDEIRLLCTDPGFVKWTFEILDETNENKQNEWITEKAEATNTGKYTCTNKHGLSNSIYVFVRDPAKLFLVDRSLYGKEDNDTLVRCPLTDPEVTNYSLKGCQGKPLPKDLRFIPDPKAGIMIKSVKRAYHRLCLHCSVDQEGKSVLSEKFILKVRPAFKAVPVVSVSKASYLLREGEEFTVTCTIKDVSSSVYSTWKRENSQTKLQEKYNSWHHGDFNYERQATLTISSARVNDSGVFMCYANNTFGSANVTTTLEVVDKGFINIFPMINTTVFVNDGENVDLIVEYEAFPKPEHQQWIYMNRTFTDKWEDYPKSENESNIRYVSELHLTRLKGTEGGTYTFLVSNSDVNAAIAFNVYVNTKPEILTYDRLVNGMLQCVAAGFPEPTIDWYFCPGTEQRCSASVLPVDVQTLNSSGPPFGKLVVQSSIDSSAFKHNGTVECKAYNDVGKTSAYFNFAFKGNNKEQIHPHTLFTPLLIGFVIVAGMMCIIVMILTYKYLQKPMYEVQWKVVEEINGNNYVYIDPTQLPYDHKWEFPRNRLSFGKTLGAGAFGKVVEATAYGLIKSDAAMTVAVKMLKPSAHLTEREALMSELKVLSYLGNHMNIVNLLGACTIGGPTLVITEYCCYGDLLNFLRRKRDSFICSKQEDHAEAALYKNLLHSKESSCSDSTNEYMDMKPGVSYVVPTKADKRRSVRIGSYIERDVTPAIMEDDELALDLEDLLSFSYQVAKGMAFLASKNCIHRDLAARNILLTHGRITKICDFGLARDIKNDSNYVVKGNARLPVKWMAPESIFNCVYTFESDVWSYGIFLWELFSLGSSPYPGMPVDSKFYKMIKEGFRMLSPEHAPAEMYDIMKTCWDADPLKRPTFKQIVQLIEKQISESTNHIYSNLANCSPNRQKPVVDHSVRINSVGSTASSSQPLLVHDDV
# T26 sequence (P05771 1-673 isoform P05771-2): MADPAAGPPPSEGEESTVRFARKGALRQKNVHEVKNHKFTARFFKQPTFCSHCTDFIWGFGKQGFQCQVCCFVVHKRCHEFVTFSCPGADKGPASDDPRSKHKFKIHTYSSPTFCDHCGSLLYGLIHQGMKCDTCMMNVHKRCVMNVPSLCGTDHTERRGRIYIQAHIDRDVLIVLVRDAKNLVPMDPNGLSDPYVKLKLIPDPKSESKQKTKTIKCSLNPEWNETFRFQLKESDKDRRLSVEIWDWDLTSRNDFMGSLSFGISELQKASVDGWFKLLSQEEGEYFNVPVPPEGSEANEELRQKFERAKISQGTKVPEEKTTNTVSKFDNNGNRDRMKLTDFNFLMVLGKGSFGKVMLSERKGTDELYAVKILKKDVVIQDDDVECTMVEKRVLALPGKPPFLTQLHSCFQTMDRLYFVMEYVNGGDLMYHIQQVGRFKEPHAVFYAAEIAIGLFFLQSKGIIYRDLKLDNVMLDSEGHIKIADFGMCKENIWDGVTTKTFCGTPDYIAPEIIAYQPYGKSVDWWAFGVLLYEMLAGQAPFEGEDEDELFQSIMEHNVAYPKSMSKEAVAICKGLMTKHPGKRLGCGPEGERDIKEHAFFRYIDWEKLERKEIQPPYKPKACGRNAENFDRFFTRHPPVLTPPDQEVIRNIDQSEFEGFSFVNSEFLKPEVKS
# T13 sequence (Q9NWZ3 whole entry): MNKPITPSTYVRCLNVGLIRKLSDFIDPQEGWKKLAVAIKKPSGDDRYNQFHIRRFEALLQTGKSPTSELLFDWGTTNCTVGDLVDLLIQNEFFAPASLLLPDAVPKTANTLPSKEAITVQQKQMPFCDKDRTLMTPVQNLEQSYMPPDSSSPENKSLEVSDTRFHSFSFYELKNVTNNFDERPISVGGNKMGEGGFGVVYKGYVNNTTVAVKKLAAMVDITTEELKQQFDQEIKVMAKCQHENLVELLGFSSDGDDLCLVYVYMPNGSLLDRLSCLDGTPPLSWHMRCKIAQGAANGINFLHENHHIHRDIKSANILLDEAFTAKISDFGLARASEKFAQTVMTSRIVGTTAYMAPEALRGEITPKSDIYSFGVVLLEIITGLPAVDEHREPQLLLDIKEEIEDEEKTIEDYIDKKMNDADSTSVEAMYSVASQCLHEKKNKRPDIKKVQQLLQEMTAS
# T40 sequence (O15264 whole entry): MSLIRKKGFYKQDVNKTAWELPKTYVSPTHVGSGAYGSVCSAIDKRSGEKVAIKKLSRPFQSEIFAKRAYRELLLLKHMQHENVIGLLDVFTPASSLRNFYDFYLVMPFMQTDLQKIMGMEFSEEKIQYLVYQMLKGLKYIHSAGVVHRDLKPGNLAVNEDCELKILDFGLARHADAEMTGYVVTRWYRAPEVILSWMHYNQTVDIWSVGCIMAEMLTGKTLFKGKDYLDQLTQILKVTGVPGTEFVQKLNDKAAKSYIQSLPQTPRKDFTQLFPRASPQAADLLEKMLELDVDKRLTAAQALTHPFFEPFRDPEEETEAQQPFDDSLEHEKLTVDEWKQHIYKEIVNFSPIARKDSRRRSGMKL
compound,measurement,setting,value
"COCCN1C[C@@H](NC(=O)Nc2c(C)c(-c3cnc(C)nc3)nn2-c2ccccc2)[C@H](c2cccc(F)c2)C1 [Compound 1, 1-((3S,4R)-4-(3-fluorophenyl)-1-(2-methoxyethyl)pyrrolidin-3-yl)-3-(4-methyl-3-(2-methylpyrimidin-5-yl)-1-phenyl-1H-pyrazol-5-yl)urea]",Avg POC,AKT3,113.5 POC
same,Avg POC,ARK5,104.5 POC
same,Avg POC,Bmx,91.5 POC
same,Avg POC,CAMK4,100 POC
same,Avg POC,CDK2/cyclinA,94.5 POC
same,Avg POC,CDK7/cyclinH/MAT1,99 POC
same,Avg POC,CK1_y,91.5 POC
same,Avg POC,CK1gamma2,61.5 POC
same,Avg POC,DAPK1,114 POC
same,Avg POC,EGFR,95.5 POC
same,Avg POC,EphB2,98 POC
same,Avg POC,HIPK3,90 POC
same,Avg POC,IKKalpha,101.5 POC
same,Avg POC,IRAK4,98 POC
same,Avg POC,JAK3,95.5 POC
same,Avg POC,KIT,97.5 POC
same,Avg POC,LKB1,104.5 POC
same,Avg POC,LOK,125.5 POC
same,Avg POC,MAPKAP-K3,99 POC
same,Avg POC,MARK2,109.5 POC
same,Avg POC,MINK,105 POC
same,Avg POC,MRCKbeta,106.5 POC
same,Avg POC,MST3,103.5 POC
same,Avg POC,NEK11,94 POC
same,Avg POC,PKAC-alpha,129.5 POC
same,Avg POC,PKCalpha,98.5 POC
same,Avg POC,PKCbetaII,99.5 POC
same,Avg POC,PKCeta,100 POC
same,Avg POC,PKCzeta,97.5 POC
same,Avg POC,Pim-1,103.5 POC
same,Avg POC,Plk3,100.5 POC
same,Avg POC,Ron,100 POC
same,Avg POC,Rsk1,102 POC
same,Avg POC,SGK3,112.5 POC
same,Avg POC,TAO3,103 POC
same,Avg POC,TBK1,114.5 POC
same,Avg POC,TEC Activated,97 POC
same,Avg POC,TLK2,101.5 POC
same,Avg POC,TNK2,93.5 POC
same,Avg POC,Tie2,82 POC
same,Avg POC,p38delta,105 POC
